Measured values reported in ChEMBL document CHEMBL1142306, “Biflavonoids isolated from Selaginella tamariscina regulate the expression of matrix metalloproteinase in human skin fibroblasts” (Bioorg Med Chem, 2008).
Active and inactive are the calls of the source. The calls are words filed in the database; no cut-off is given here.

What was measured:
[1] = target: 72 kDa type IV collagenase (Homo sapiens) (UniProt P08253); test: Inhibition of MMP2 in UVB irradiated human dermal fibroblasts at <5 uM by zymography
Chain of 72 kDa type IV collagenase (Homo sapiens) (P08253 110-660 limits assumed): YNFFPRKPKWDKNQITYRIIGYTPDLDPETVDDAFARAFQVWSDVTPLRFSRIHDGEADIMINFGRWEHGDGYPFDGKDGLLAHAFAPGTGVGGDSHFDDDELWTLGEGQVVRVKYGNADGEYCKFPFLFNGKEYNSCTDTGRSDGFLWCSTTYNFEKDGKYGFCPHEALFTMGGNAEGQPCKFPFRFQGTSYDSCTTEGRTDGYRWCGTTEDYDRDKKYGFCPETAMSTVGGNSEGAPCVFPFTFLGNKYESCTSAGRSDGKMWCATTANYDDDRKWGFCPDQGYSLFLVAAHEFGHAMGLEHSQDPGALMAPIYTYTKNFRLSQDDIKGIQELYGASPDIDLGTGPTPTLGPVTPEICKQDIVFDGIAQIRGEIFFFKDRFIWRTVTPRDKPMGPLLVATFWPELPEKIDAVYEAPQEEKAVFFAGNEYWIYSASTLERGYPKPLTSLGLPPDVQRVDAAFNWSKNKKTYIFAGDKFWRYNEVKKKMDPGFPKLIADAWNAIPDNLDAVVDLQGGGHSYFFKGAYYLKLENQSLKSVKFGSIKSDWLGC

Fibroblast [2] = test: Inhibition of UVB irradiation-induced MMP1 production in human dermal fibroblasts at 20 uM after 48 hrs; type: functional, cell-based
Fibroblast [3] = test: Inhibition of UVB irradiation-induced MMP1 production in human dermal fibroblasts at 10 uM after 48 hrs; type: functional, cell-based
Fibroblast [4] = test: Growth inhibition of UVB irradiated human dermal fibroblasts at 20 uM; type: functional, cell-based
Fibroblast [5] = test: Inhibition of UVB irradiation-induced MMP1 production in human dermal fibroblasts at 5 uM after 48 hrs; type: functional, cell-based
Fibroblast [6] = test: Decrease in cell viability of UVB irradiated human dermal fibroblasts at 20 uM; type: functional
Fibroblast [7] = test: Decrease in protein content in UVB irradiated human dermal fibroblasts at 20 uM relative to control; type: functional; parameters: scale not given: the % may be the effect or the level left
Fibroblast [8] = test: Decrease in cell viability of UVB irradiated human dermal fibroblasts at 5 uM; type: functional
Fibroblast [9] = test: Decrease in protein content in UVB irradiated human dermal fibroblasts at 5 uM relative to control; type: functional; parameters: scale not given: the % may be the effect or the level left
Fibroblast [10] = test: Growth inhibition of UVB irradiated human dermal fibroblasts at 5 uM; type: functional, cell-based
Fibroblast [11] = test: Inhibition of UVB irradiation-induced MMP1 production in human dermal fibroblasts after 48 hrs; type: functional, cell-based; settings: for IC50: light or radiation study
Fibroblast [12] = test: Inhibition of UVB irradiation-induced MMP1 production in human dermal fibroblasts at 1.25 uM after 48 hrs; type: functional, cell-based
Fibroblast [13] = test: Inhibition of UVB irradiation-induced MMP1 production in human dermal fibroblasts at 2.5 uM after 48 hrs; type: functional, cell-based

Row | SMILES | Activity [1] | Activity (Fibroblast [2]) | Activity (Fibroblast [3]) | Activity (Fibroblast [4]) | Activity (Fibroblast [5]) | Activity (Fibroblast [6]) | Activity (Fibroblast [7]) | Activity (Fibroblast [8]) | Activity (Fibroblast [9]) | Activity (Fibroblast [10]) | Activity (Fibroblast [11]) | IC50 (Fibroblast [11]) | Activity (Fibroblast [12]) | Activity (Fibroblast [13])
1 | CC1=C(/C=C/C(C)=C/C=C/C(C)=C/C(=O)O)C(C)(C)CCC1 [TRETINOIN] | – | – | – | – | – | – | – | – | – | – | – | 10000 nM | – | –
2 | O=c1cc(-c2ccc(O)c(-c3c(O)cc4oc(-c5ccc(O)cc5)cc(=O)c4c3O)c2)oc2cc(O)cc(O)c12 | inactive | – | – | – | inactive | – | – | – | – | – | – | – | inactive | inactive
3 | O=c1cc(-c2ccc(O)cc2-c2c(O)cc(O)c3c(=O)cc(-c4ccc(O)cc4)oc23)oc2cc(O)cc(O)c12 | inactive | – | – | – | Active | – | – | 50% | 50% | Active | – | – | inactive | inactive
4 | O=c1cc(-c2ccc(O)c(-c3c(O)cc(O)c4c(=O)cc(-c5ccc(O)cc5)oc34)c2)oc2cc(O)cc(O)c12 [AMENTOFLAVONE] | inactive | – | – | – | Active | – | – | – | – | – | Dose-dependent effect | 1800 nM | – | –

Now from value to compound, other results behind:

Row | Activity [1] | SMILES | Activity (Fibroblast [2]) | Activity (Fibroblast [3]) | Activity (Fibroblast [4]) | Activity (Fibroblast [5]) | Activity (Fibroblast [6]) | Activity (Fibroblast [7]) | Activity (Fibroblast [8]) | Activity (Fibroblast [9]) | Activity (Fibroblast [10]) | Activity (Fibroblast [11]) | IC50 (Fibroblast [11]) | Activity (Fibroblast [12]) | Activity (Fibroblast [13])
5 | inactive | O=c1cc(-c2ccc(O)c(-c3c(-c4ccc(O)cc4)oc4cc(O)cc(O)c4c3=O)c2)oc2cc(O)cc(O)c12 [TAIWANIAFLAVONE] | Active | inactive | Active | inactive | 50% | 50% | – | – | – | – | – | – | –
6 | inactive | O=c1cc(-c2ccc(O)c(-c3c(O)c(O)c(O)c4c(=O)cc(-c5ccc(O)cc5)oc34)c2)oc2cc(O)cc(O)c12 [SUMAFLAVONE] | – | – | – | Active | – | – | 50% | 50% | Active | Dose-dependent effect | 780 nM | – | –
